Results: US4250329A, “Carbonylation process” (priority 1979, dated 1981)
“And” between values parts separate entries of the source, which are not always exact repeats. Identical values can stand only once. Like-named read-outs stand apart in the source and are kept apart here.

Legend:
[1] = Carbonylation of methanol to methyl acetate; set-up: methyl acetate (drawing 15) produced: unit not given here; settings: for methyl acetate (drawing 17): the values are: methyl acetate volume produced; for % Conversion (Table II) / % Selectivity (Table II; additional product was dimethyl ether): 1000 psi; for methyl acetate (drawing 15) produced / CH3 OH consumed: 20 hour
Protocol: (THF)4 Mg[Co(CO)3 P(C4 H9)3 ]2 +CH3 I catalyst system
Reaction conditions: 175° C., 1000 psi

[2] = Hydroformylation of propylene; settings: 133 °C
From the text: [table 17: the next 25 blocks are its lines as printed, fixed-width]

[3] = Protocol: This conversion is run at elevated pressures, preferably from 1,500 to 3,000 psi. Reaction temperatures will range from 50° C. to 200° C., with a range of 100° C. to 150° C. preferred. Ratio of H2 to CO used will vary with reaction conditions; preferably a 1 to 1 ratio is maintained. The catalyst concentration will range from 0.01 to 20% based on the weight feed, with 0.05 to 10% preferred.
30 ml. of hexene-1, 20 ml. of benzene, and 0.3 gm. […] The bomb was heated to 140° C. and held until the reaction was complete.

[4] = Carbonylation of methanol to methyl acetate; settings: 175° C.
[5] = cocatalyst 8.0 mmole, 19 hr, 1.0 mmole catalyst, 175° C., 1000 psi CO
[6] = catalyst 1.0 mmole, CH3I 8.0 mmole, 21 hour, 175° C.
[7] = 1500 psi 1:1 H2:CO, 140° C., 0.3 gm catalyst
[8] = catalyst 2.0 mmole, CH3I 8.0 mmole, 67 hour, 175° C.
[9] = CH3I 1.6 mmole, 18 hr, 175° C., 1000 psi CO, no reaction occurs
[10] = CH3I 4.0 mmole, 18 hr, 175° C., 1000 psi CO
[11] = CH3I 6.0 mmole, 18 hr, 175° C., 1000 psi CO
[12] = CH3I 8.0 mmole, 3.25 hr, 175° C., 4000 psig CO
[13] = CH3I 8.0 mmole, 18 hr, 175° C., 1000 psi CO
[14] = CH3I 12.0 mmole, 18 hr, 175° C., 1000 psi CO
[15] = CH3I 16.0 mmole, 18 hr, 175° C., 1000 psi CO
[16] = CH3I 48.0 mmole, 17 hr, 175° C., 1000 psi CO
[17] = cocatalyst 8.0 mmole, 18 hr, 1.0 mmole catalyst, 175° C., 1000 psi CO
[18] = cocatalyst 8.0 mmole, 90 hr, 1.0 mmole catalyst, 175° C., 1000 psi CO

Compound: CCI [CH3 CH2 I]
- % Conversion to Methyl Acetate (Table III) [1, 5]: 20%
- % Selectivity to Methyl Acetate (Table III) [1, 5]: 85%
- methyl acetate (drawing 17) [1]: 17.5 mL

Compound: [C-]#[O+].[Cl-].[Rh].c1ccc(P(c2ccccc2)c2ccccc2)cc1.c1ccc(P(c2ccccc2)c2ccccc2)cc1 [((C6 H5)3 P)2 Rh(CO)Cl]
- t1/2 ([2]; 1n 2/k): 9.32 min
- k (pseudo 1st order reaction rate constant) ([2]; 1000 psig CO/H2 50/50): 0.0744 min⁻¹
- n-C4 H8 O (percent straight chain isomer) ([2]; 1000 psig CO/H2 50/50, benzene, 0.5 mmoles catalyst based on Rh): 56%

Compound: [C-]#[O+].[C-]#[O+].[C-]#[O+].[C-]#[O+].[C-]#[O+].[C-]#[O+].[C-]#[O+].[C-]#[O+].[Co].[Co] [Co2 (CO)8]
- % Conversion (Table II) [1, 6]: 3.5%
- % Selectivity (Table II; additional product was dimethyl ether) [1, 6]: 6.4%

Compound: [I-].[Li+] [LiI]
- % Conversion to Methyl Acetate (Table III) [1]: 0.6%
- % Selectivity to Methyl Acetate (Table III) [1]: 100%
- methyl acetate (drawing 17) [1]: 1 mL

Compound: tetrakis tetrahydrofuran adduct of a magnesium-dicobalt hexacarbonyl bismethyldiphenylphosphine complex [(C4 H8 O)4 Mg[Co(CO)3 PCH3 (C6 H5)2]2]
- hexene-1 converted to C7 aldehydes and C7 alcohols [3, 7]: 99%
- reacted product that was an aldehyde [3, 7]: 87%
- conversion of 1-hexene to heptaldehydes ([3]; elevated pressures): > 99%
- selectivity, 1-hexene to heptaldehydes ([3]; elevated pressures): 87%

Compound: I [HI]
- % Conversion to Methyl Acetate (Table III) [1]: 8%
- % Selectivity to Methyl Acetate (Table III) [1]: 47%
- methyl acetate (drawing 17) [1]: 6.6 mL

Compound: CBr [CH3 Br]
- activity as cocatalyst [1]: inactive

Compound: CC(=O)[CH-]C(C)=O.CC(=O)[CH-]C(C)=O.CC(=O)[CH-]C(C)=O.[Co+3] [Co(C5 H7 O2)3]
- % Conversion (Table II) [1, 8]: 16%
- % Selectivity (Table II; additional product was dimethyl ether) [1, 8]: 23%

Compound: CI [CH3 I, methyl iodide]
- % Conversion to Methyl Acetate (Table IV) [1, 9]: 0.0%
- % Selectivity to Methyl Acetate (Table IV) [1, 9]: 0.0%
- methyl acetate (drawing 15) produced ([1]; CH3I 1.6 mmole, 1.0 mmole catalyst, 1000 psi CO, 175° C.): 0.5
- CH3 OH consumed ([1]; CH3I 1.6 mmole, 1000 psi CO, 175° C.): 1.2 mL
- % Conversion to Methyl Acetate (Table IV) [1, 10]: 22%
- % Selectivity to Methyl Acetate (Table IV) [1, 10]: 100%
- % Conversion to Methyl Acetate (Table IV) [1, 11]: 24%
- % Selectivity to Methyl Acetate (Table IV) [1, 11]: 100%
- % Conversion to Methyl Acetate (Table IV) [1, 12]: 29%
- % Selectivity to Methyl Acetate (Table IV) [1, 12]: 97%
- % Conversion to Methyl Acetate (Table IV) [1, 13]: 24%
- % Selectivity to Methyl Acetate (Table IV) [1, 13]: 85%
- methyl acetate (drawing 15) produced ([1]; CH3I 8.0 mmole, 1.0 mmole catalyst, 1000 psi CO, 175° C.): 22.4
- CH3 OH consumed ([1]; CH3I 8.0 mmole, 1000 psi CO, 175° C.): 30.0 mL
- % Conversion to Methyl Acetate (Table IV) [1, 14]: 5.4%
- % Selectivity to Methyl Acetate (Table IV) [1, 14]: 15%
- % Selectivity to Methyl Acetate (Table IV) ([1]; CH3I 16.0 mmole, 4.25 hr, 175° C., 4000 psig CO): 74%
- % Conversion to Methyl Acetate (Table IV) [1, 15]: 4.5%
- % Selectivity to Methyl Acetate (Table IV) [1, 15]: 12%
- methyl acetate (drawing 15) produced ([1]; CH3I 16.0 mmole, 1.0 mmole catalyst, 1000 psi CO, 175° C.): 4.5
- CH3 OH consumed ([1]; CH3I 16.0 mmole, 1000 psi CO, 175° C., CH3OH is dehydrated to CH3OCH3): 45.0 mL
- % Conversion to Methyl Acetate (Table IV) [1, 16]: 0.0%
- % Selectivity to Methyl Acetate (Table IV) [1, 16]: 0.0%
- conversion to CH3 OCH3 [1, 16]: 100%
- methyl acetate (drawing 15) produced ([1]; CH3I 48.0 mmole, 1.0 mmole catalyst, 1000 psi CO, 175° C.): 1.2
- CH3 OH consumed ([1]; CH3I 48.0 mmole, 1000 psi CO, 175° C., CH3OH is dehydrated to CH3OCH3): 90. ml
- % Selectivity to Methyl Acetate (Table III) ([1]; cocatalyst 8.0 mmole, 3.25 hr, 1.0 mmole catalyst, 175° C., 4000 psi CO): 97%
- % Conversion to Methyl Acetate (Table III) [1, 17]: 24%
- % Selectivity to Methyl Acetate (Table III) [1, 17]: 85%
- % Conversion to Methyl Acetate (Table III) ([1]; cocatalyst 16.0 mmole, 4.25 hr, 1.0 mmole catalyst, 175° C., 4000 psi CO): 25%
- methyl acetate (drawing 17) [1]: 19.8 mL and 29.6 mL and 21.4 mL
- % Conversion to Methyl Acetate (Table IV) ([4]; CH3I 16.0 mmole, 4.25 hr, 4000 psig CO): 25%
- % Conversion to Methyl Acetate (Table III) ([4]; cocatalyst 8.0 mmole, 3.25 hr, 1.0 mmole catalyst, 4000 psi CO): 29%
- % Selectivity to Methyl Acetate (Table III) ([4]; cocatalyst 16.0 mmole, 4.25 hr, 1.0 mmole catalyst, 4000 psi CO): 74%

Compound: Ic1ccccc1 [C6 H5 I]
- % Conversion to Methyl Acetate (Table III) [1, 18]: 25%
- % Selectivity to Methyl Acetate (Table III) [1, 18]: 52%
- methyl acetate (drawing 17) ([1]; cocatalyst 8.0 mmole, 1000 psi CO, 175° C., 90 hours): 22.3 mL
